What was measured:
Format in all cases: ADME
[1] = Drug metabolism in CD1 mouse liver microsomes assessed as depletion of parent compound at 1 uM after 30 mins by LC/MS analysis in presence of NADPH; settings: 0.5 h
[2] = Drug metabolism in dexamethasone treated CD1 mouse liver microsomes assessed as metabolite formation at 20 uM after 30 mins by LC/MS analysis in presence of NADPH and CYP450 inhibitor SKF525A; settings: 0.5 h
[3] = Drug metabolism in dexamethasone treated CD1 mouse liver microsomes assessed as metabolite formation at 20 uM after 30 mins by LC/MS analysis in presence of NADPH and CYP2A inhibitor 8-methoxypsoralen; settings: 0.5 h
[4] = system: Liver microsome; test: Drug metabolism in human liver microsomes assessed as metabolite formation at 20 uM after 30 mins by LC/MS analysis in presence of NADPH and ritonavir; settings: 0.5 h
[5] = Drug metabolism in CD1 mouse liver microsomes assessed as metabolite formation at 20 uM after 30 mins by LC/MS analysis in presence of NADPH and CYP1A1 inhibitor alpha-naphthoflavone; settings: 0.5 h
[6] = Drug metabolism in CD1 mouse liver microsomes assessed as metabolite formation at 20 uM after 30 mins by LC/MS analysis in presence of NADPH and CYP2C inhibitor sulfaphenazole; settings: 0.5 h
[7] = Drug metabolism in dexamethasone treated CD1 mouse liver microsomes assessed as metabolite formation at 20 uM after 30 mins by LC/MS analysis in presence of NADPH and CYP1A1 inhibitor alpha-naphthoflavone; settings: 0.5 h
[8] = Drug metabolism in CD1 mouse liver microsomes assessed as metabolite formation at 20 uM after 30 mins by LC/MS analysis in presence of NADPH and CYP2B inhibitor orphenadrine; settings: 0.5 h
[9] = Drug metabolism in prednisone treated CD1 mouse liver microsomes assessed as depletion of parent compound at 1 uM after 30 mins by LC/MS analysis in presence of NADPH; settings: 0.5 h
[10] = system: Liver microsome; test: Drug metabolism in human liver microsomes assessed as metabolite formation at 20 uM after 30 mins by LC/MS analysis in presence of NADPH and tamoxifen; settings: 0.5 h
[11] = Drug metabolism in prednisone treated CD1 mouse liver microsomes assessed as metabolite formation at 20 uM after 30 mins by LC/MS analysis in presence of NADPH and CYP2D inhibitor quinine; settings: 0.5 h
[12] = Drug metabolism in dexamethasone treated CD1 mouse liver microsomes assessed as metabolite formation at 20 uM after 30 mins by LC/MS analysis in presence of NADPH and CYP2E inhibitor di-ethyldithiocarbamate; settings: 0.5 h
[13] = Drug metabolism in prednisone treated CD1 mouse liver microsomes assessed as 1alpha,23S,25(OH)3D3 metabolite formation at 20 uM after 30 mins by LC/MS analysis in presence of NADPH; settings: 0.5 h
[14] = Drug metabolism in prednisone treated CD1 mouse liver microsomes assessed as metabolite formation at 20 uM after 30 mins by LC/MS analysis in presence of NADPH and CYP1A2 inhibitor furafyline; settings: 0.5 h
[15] = Drug metabolism in CD1 mouse liver microsomes assessed as metabolite formation at 20 uM after 30 mins by LC/MS analysis in presence of NADPH and CYP1A2 inhibitor furafyline; settings: 0.5 h
[16] = Drug metabolism in CD1 mouse liver microsomes assessed as metabolite formation at 20 uM after 30 mins by LC/MS analysis in presence of NADPH and CYP2D inhibitor quinine; settings: 0.5 h
[17] = Drug metabolism in prednisone treated CD1 mouse liver microsomes assessed as metabolite formation at 20 uM after 30 mins by LC/MS analysis in presence of NADPH and CYP2E inhibitor di-ethyldithiocarbamate; settings: 0.5 h
[18] = Drug metabolism in dexamethasone treated CD1 mouse liver microsomes assessed as metabolite formation at 20 uM after 30 mins by LC/MS analysis in presence of NADPH and CYP1A2 inhibitor furafyline; settings: 0.5 h
[19] = system: Liver microsome; test: Drug metabolism in human liver microsomes assessed as metabolite formation at 20 uM after 30 mins by LC/MS analysis in presence of NADPH and paclitaxel; settings: 0.5 h
[20] = Drug metabolism in dexamethasone treated CD1 mouse liver microsomes assessed as 1alpha,23R,25(OH)3D3 metabolite formation at 20 uM after 30 mins by LC/MS analysis in presence of NADPH; settings: 0.5 h
[21] = Drug metabolism in dexamethasone treated CD1 mouse liver microsomes assessed as 1alpha,24S,25(OH)3D3 metabolite formation at 20 uM after 30 mins by LC/MS analysis in presence of NADPH; settings: 0.5 h
[22] = system: Liver microsome; test: Drug metabolism in human liver microsomes assessed as metabolite formation at 20 uM after 30 mins by LC/MS analysis in presence of NADPH and ketoconazole; settings: 0.5 h
[23] = Drug metabolism in dexamethasone treated CD1 mouse liver microsomes assessed as metabolite formation at 20 uM after 30 mins by LC/MS analysis in presence of NADPH and CYP2C inhibitor sulfaphenazole; settings: 0.5 h
[24] = Drug metabolism in prednisone treated CD1 mouse liver microsomes assessed as metabolite formation at 20 uM after 30 mins by LC/MS analysis in presence of NADPH and CYP450 inhibitor SKF525A; settings: 0.5 h
[25] = Drug metabolism in dexamethasone treated CD1 mouse liver microsomes assessed as depletion of parent compound at 1 uM after 30 mins by LC/MS analysis in presence of NADPH; settings: liver microsomes from dexamethasone-treated mice, read-out: Drug metabolism
[26] = Drug metabolism in prednisone treated CD1 mouse liver microsomes assessed as metabolite formation at 20 uM after 30 mins by LC/MS analysis in presence of NADPH and CYP1A1 inhibitor alpha-naphthoflavone; settings: 0.5 h
[27] = system: Liver microsome; test: Drug metabolism in human liver microsomes assessed as metabolite formation at 20 uM after 30 mins by LC/MS analysis in presence of NADPH and docetaxel; settings: 0.5 h
[28] = Drug metabolism in prednisone treated CD1 mouse liver microsomes assessed as metabolite formation at 20 uM after 30 mins by LC/MS analysis in presence of NADPH and CYP2A inhibitor 8-methoxypsoralen; settings: 0.5 h
[29] = Drug metabolism in prednisone treated CD1 mouse liver microsomes assessed as metabolite formation at 20 uM after 30 mins by LC/MS analysis in presence of NADPH and CYP2B inhibitor orphenadrine; settings: 0.5 h
[30] = Drug metabolism in dexamethasone treated CD1 mouse liver microsomes assessed as metabolite formation at 20 uM after 30 mins by LC/MS analysis in presence of NADPH and CYP2D inhibitor quinine; settings: 0.5 h
[31] = Drug metabolism in prednisone treated CD1 mouse liver microsomes assessed as 1alpha,23R,25(OH)3D3 metabolite formation at 20 uM after 30 mins by LC/MS analysis in presence of NADPH; settings: 0.5 h
[32] = Drug metabolism in CD1 mouse liver microsomes assessed as metabolite formation at 20 uM after 30 mins by LC/MS analysis in presence of NADPH and CYP450 inhibitor SKF525A; settings: 0.5 h
[33] = Drug metabolism in CD1 mouse liver microsomes assessed as metabolite formation at 20 uM after 30 mins by LC/MS analysis in presence of NADPH and CYP2E inhibitor di-ethyldithiocarbamate; settings: 0.5 h
[34] = Drug metabolism in CD1 mouse liver microsomes assessed as metabolite formation at 20 uM after 30 mins by LC/MS analysis in presence of NADPH and CYP2A inhibitor 8-methoxypsoralen; settings: 0.5 h
[35] = Drug metabolism in prednisone treated CD1 mouse liver microsomes assessed as 1alpha,24S,25(OH)3D3 metabolite formation at 20 uM after 30 mins by LC/MS analysis in presence of NADPH; settings: 0.5 h
[36] = system: Liver microsome; test: Drug metabolism in human liver microsomes assessed as assessed as metabolite formation at 20 uM after 30 mins by LC/MS analysis in presence of NADPH; settings: 0.5 h
[37] = Drug metabolism in dexamethasone treated CD1 mouse liver microsomes assessed as metabolite formation at 20 uM after 30 mins by LC/MS analysis in presence of NADPH and CYP2B inhibitor orphenadrine; settings: 0.5 h
[38] = Drug metabolism in prednisone treated CD1 mouse liver microsomes assessed as 1alpha,24R,25(OH)3D3 metabolite formation at 20 uM after 30 mins by LC/MS analysis in presence of NADPH; settings: 0.5 h
[39] = Drug metabolism in prednisone treated CD1 mouse liver microsomes assessed as metabolite formation at 20 uM after 30 mins by LC/MS analysis in presence of NADPH and CYP2C inhibitor sulfaphenazole; settings: 0.5 h

Drug metabolism [1]: metabolite_not_detected
Drug metabolism [2]: metabolite_not_detected
Drug metabolism [3]: metabolite_detected
Drug metabolism [4]: metabolite_not_detected
Drug metabolism [5]: metabolite_detected
Drug metabolism [6]: metabolite_detected
Drug metabolism [7]: metabolite_detected
Drug metabolism [8]: metabolite_detected
Drug metabolism [9]: metabolite_not_detected
Drug metabolism [10]: metabolite_not_detected
Drug metabolism [11]: metabolite_detected
Drug metabolism [12]: metabolite_detected
Drug metabolism [13]: metabolite_detected
Drug metabolism [14]: metabolite_detected
Drug metabolism [15]: metabolite_detected
Drug metabolism [16]: metabolite_detected
Drug metabolism [17]: metabolite_detected
Drug metabolism [18]: metabolite_detected
Drug metabolism [19]: metabolite_not_detected
Drug metabolism [20]: metabolite_detected
Drug metabolism [21]: metabolite_detected
Drug metabolism [22]: metabolite_not_detected
Drug metabolism [23]: metabolite_detected
Drug metabolism [24]: metabolite_not_detected
metabolised at 0.5 h, 1 µM [25]: 70%
Drug metabolism [26]: metabolite_detected
Drug metabolism [27]: metabolite_not_detected
Drug metabolism [28]: metabolite_detected
Drug metabolism [29]: metabolite_detected
Drug metabolism [30]: metabolite_detected
Drug metabolism [31]: metabolite_detected
Drug metabolism [32]: metabolite_not_detected
Drug metabolism [33]: metabolite_detected
Drug metabolism [34]: metabolite_detected
Drug metabolism [35]: metabolite_detected
Drug metabolism [36]: metabolite_detected
Drug metabolism [37]: metabolite_detected
Drug metabolism [38]: metabolite_detected
Drug metabolism [39]: metabolite_detected
Compound: C=C1/C(=C\C=C2/CCC[C@]3(C)[C@@H]([C@H](C)CCCC(C)(C)O)CC[C@@H]23)C[C@@H](O)C[C@@H]1O [CALCITRIOL]

From ChEMBL document CHEMBL3525924, “Cytochrome P450 3A-mediated microsomal biotransformation of 1α,25-dihydroxyvitamin D3 in mouse and human liver: drug-related induction and inhibition of catabolism” (Drug Metab Dispos, 2012)
